The text below walks through data of ChEMBL document CHEMBL1124887, “Antiinflammatory agents. 4. Syntheses and biological evaluation of potential prodrugs of 2-amino-3-benzoylbenzeneacetic acid and 2-amino-3-(4-chlorobenzoyl)benzeneacetic acid” (J Med Chem, 1990).

Active and inactive are the calls of the source. The calls are words filed in the database; no cut-off is given here.

The species named for series [1] is Rattus norvegicus. The series can be described thus: Pharmacological potency relative to indomethacin for prodrug candidate by adjuvant-induced arthritis assay. The series is classed as functional.
The target in a further series is T1, Cyclooxygenase (Rattus norvegicus, UniProt P35355+Q63921).
T1 sequence (P35355 whole entry): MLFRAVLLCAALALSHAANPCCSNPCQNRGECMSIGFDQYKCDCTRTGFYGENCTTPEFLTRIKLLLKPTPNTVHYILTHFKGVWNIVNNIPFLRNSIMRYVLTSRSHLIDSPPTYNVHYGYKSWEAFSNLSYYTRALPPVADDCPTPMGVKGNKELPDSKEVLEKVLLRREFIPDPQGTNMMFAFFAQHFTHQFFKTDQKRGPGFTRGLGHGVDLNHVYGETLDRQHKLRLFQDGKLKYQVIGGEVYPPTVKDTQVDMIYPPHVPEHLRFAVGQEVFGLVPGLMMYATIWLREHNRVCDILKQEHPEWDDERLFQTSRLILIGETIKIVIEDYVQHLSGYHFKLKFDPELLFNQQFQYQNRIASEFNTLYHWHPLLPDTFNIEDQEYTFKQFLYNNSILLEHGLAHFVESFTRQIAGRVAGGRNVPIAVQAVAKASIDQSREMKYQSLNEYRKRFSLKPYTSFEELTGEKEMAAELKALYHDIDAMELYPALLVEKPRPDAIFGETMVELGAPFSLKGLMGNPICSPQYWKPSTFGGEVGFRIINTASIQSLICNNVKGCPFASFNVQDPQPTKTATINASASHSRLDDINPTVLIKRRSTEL
T1 sequence (Q63921 whole entry): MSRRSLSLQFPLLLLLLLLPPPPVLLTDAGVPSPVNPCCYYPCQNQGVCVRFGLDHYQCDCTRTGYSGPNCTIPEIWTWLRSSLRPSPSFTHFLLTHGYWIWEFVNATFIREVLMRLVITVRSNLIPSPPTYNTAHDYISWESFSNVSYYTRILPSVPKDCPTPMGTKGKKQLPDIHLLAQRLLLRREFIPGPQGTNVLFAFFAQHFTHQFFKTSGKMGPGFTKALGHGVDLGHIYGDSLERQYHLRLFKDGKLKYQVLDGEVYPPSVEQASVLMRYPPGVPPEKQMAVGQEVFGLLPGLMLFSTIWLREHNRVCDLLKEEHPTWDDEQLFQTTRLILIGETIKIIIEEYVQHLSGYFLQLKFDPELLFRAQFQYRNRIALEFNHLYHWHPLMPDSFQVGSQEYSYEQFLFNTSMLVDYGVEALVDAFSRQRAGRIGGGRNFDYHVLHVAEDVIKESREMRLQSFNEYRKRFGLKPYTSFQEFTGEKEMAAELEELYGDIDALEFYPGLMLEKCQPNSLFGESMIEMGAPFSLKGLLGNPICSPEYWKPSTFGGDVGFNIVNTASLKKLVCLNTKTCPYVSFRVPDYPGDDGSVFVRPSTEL

For series [2], the species on record is Rattus norvegicus. The series can be described thus: (§1) Potency in adjuvant-induced arthritis assay/ potency in intestinal toxicity assay. The series is classed as functional.
A short description of series [3]: Antiinflammatory activity was tested in Pleural effusion rate assay and the percent change in average volume of pleural fluid at the dose of 316 mg/kg; Inactive.
In series [4] the test system is Rattus norvegicus. The series can be described thus: Antiinflammatory activity was tested in Pleural effusion rate assay for and the percent change in average volume of pleural fluid at the dose of 4.0 mg/kg. It is filed as functional.
A short description of series [5]: as §1. Conditions: read-out: Therapeutic index.
Series [6] has as its target Prostaglandin G/H synthase 1 (Ovis aries) (UniProt P05979). The series can be described thus: Inhibitory activity against Prostaglandin G/H synthase.
For series [7], the species on record is Rattus norvegicus. Description: potency in adjuvant-induced arthritis assay/ potency in intestinal toxicity assay. It is filed as functional.

Broadly, the IC50 is the concentration at which inhibition is half-maximal. A lower IC50 goes with greater potency in that assay. For the molecule `Nc1c(CC(=O)[O-])cccc1C(O)c1ccc(Cl)cc1.[Na+]` (stereo unspecified), the Potency in the series filed under Rattus norvegicus [1] was 0.002. In addition, on Cyclooxygenase, the half-inhibitory concentration (IC50) is more than 1000 µM.

As for `O=C(O)Cc1cccc2c(-c3ccccc3)onc12`, the Therapeutic index in the series listed under Rattus norvegicus [2] stood at 2.5. In addition, in the series listed under Rattus norvegicus [1], the Potency stood at 0.6. The same molecule came in with an IC50 against Cyclooxygenase of more than 1000 µM.

Take `Nc1c(C(=O)CCC(=O)O)cccc1C(=O)c1ccc(Cl)cc1`: in the series filed under Rattus norvegicus [2], the Therapeutic index turned out to be 3. The Potency in the series listed under Rattus norvegicus [1] turned out to be 0.9. At Cyclooxygenase, this molecule displayed an IC50 of more than 1000 µM.

Take `O=C1Cc2cccc(C(=O)c3ccc(Cl)cc3)c2N1`: the Change result in series [3] is “inactive”.

Turning to `NC(=O)Cc1cccc(C(=O)c2ccccc2)c1N`, the Potency in the series listed under Rattus norvegicus [1] was found to be 0.09. On Cyclooxygenase, the IC50 is more than 100 µM.

Consider `CC(=O)c1cccc(C(=O)c2ccccc2)c1N`, for which, in series [3], the Change entry is “inactive”.

As for `Nc1c(CC(=O)[O-])cccc1C(O)c1ccccc1.[Na+]` (stereo unspecified), the Potency in the series listed under Rattus norvegicus [1] amounted to 0.001. Also, at Cyclooxygenase, the IC50 is more than 1000 µM.

Take `Nc1c(CCO)cccc1C(O)c1ccc(Cl)cc1` (stereo unspecified): the Potency in the series listed under Rattus norvegicus [1] was 0.05. On Cyclooxygenase, this molecule displayed an IC50 of more than 1000 µM.

Take `Nc1c(CCO)cccc1C(=O)c1ccccc1`: the Potency in the series filed under Rattus norvegicus [1] is listed as 0.05. The molecule further gave an IC50 against Cyclooxygenase of more than 100 µM.

As to `O=C(O)Cc1cccc(C(=O)c2ccc(Cl)cc2)c1[N+](=O)[O-]`, in the series on Rattus norvegicus [4], the Change was -21%. Besides, the Potency in the series filed under Rattus norvegicus [1] was 1.7. The selectivity ratio in series [5] was 3.4. Moreover, the IC50 in series [6] was more than 1000 µM.

On to `O=C(O)Cc1cccc2c(-c3ccc(Cl)cc3)onc12`, for which the Therapeutic index in the series listed under Rattus norvegicus [7] was determined as 1. Also, the Potency in the series listed under Rattus norvegicus [1] was 1. Also, on Cyclooxygenase, the IC50 was more than 500 µM.

In the case of `N#CCc1cccc(C(=O)c2ccc(Cl)cc2)c1N`, the Change result in series [3] was “inactive”.

On to `NC(=O)Cc1cccc(C(=O)c2ccc(Cl)cc2)c1N`, for which the Therapeutic index in the series listed under Rattus norvegicus [2] stood at 10. In addition, the Potency in the series filed under Rattus norvegicus [1] was 0.8. The molecule further yielded an IC50 at Cyclooxygenase of more than 1000 µM.

Consider `CCOC(=O)Cc1cccc(C(=O)c2ccc(Cl)cc2)c1NC(=O)C(F)(F)F`, for which, in the series filed under Rattus norvegicus [2], the Therapeutic index stood at 3.3. Besides, the Potency in the series listed under Rattus norvegicus [1] was 1. Also, at Cyclooxygenase, the IC50 was more than 1000 µM.

`O=C(O)Cc1cccc(C(=O)c2ccccc2)c1[N+](=O)[O-]`: the Therapeutic index in the series listed under Rattus norvegicus [2] was 5. In addition, the Potency in the series listed under Rattus norvegicus [1] was found to be 0.5. The same molecule displayed an IC50 against Cyclooxygenase of more than 1000 µM.

On to `Nc1c(CC(=O)[O-])cccc1C(=O)C1CCCCC1.[Na+]`, for which, in the series filed under Rattus norvegicus [1], the Potency is 0.004.

With `O=C1Cc2cccc(C(=O)c3ccccc3)c2N1`, the Change result in series [3] was “inactive”.

In the case of `Nc1c(CC(=O)[O-])cccc1C(=O)c1ccc(Cl)cc1.[Na+]`, in the series filed under Rattus norvegicus [2], the Therapeutic index worked out at 1.6. In addition, in the series listed under Rattus norvegicus [1], the Potency is on record as 2.2. Besides, on Cyclooxygenase, the IC50 was 0.1 µM.

Consider `Nc1c(C(=O)CCC(=O)O)cccc1C(=O)c1ccccc1`, for which, in the series filed under Rattus norvegicus [2], the Therapeutic index is given as 2.5. Further, the Potency in the series listed under Rattus norvegicus [1] is reported as 0.4. Besides, at Cyclooxygenase, the IC50 is more than 1000 µM.

`Nc1c(CC(=O)[O-])cccc1C(=O)c1ccccc1.[Na+]` [AMFENAC SODIUM]: the Therapeutic index in the series listed under Rattus norvegicus [2] was found to be 2.8. Also, the Potency in the series filed under Rattus norvegicus [1] stood at 1.1. The same molecule displayed an IC50 against Cyclooxygenase of 0.1 µM.

Take `COc1ccc2c(c1)c(CC(=O)O)c(C)n2C(=O)c1ccc(Cl)cc1` [INDOMETHACIN]: in the series filed under Rattus norvegicus [1], the Potency was 1.

On to `CCOC(=O)Cc1cccc(C(=O)c2ccc(Cl)cc2)c1N`, for which the Therapeutic index in the series filed under Rattus norvegicus [2] came to 1.7. Moreover, the Potency in the series listed under Rattus norvegicus [1] is 1. The same molecule showed an IC50 on Cyclooxygenase of 73 µM.

Turning to `CCOC(=O)Cc1cccc(C(=O)c2ccccc2)c1N`, the Therapeutic index in the series listed under Rattus norvegicus [2] was 0.4. The Potency in the series listed under Rattus norvegicus [1] was found to be 0.3. Also, the IC50 against Cyclooxygenase was found to be 50 µM.

As for `CC(=O)Nc1c(CC(=O)O)cccc1C(=O)c1ccccc1`, the Change entry in series [3] was “inactive”.

As for `CN(C)c1c(CC(=O)O)cccc1C(=O)c1ccccc1`, in the series listed under Rattus norvegicus [1], the Potency came out at 0.009. In addition, the IC50 against Cyclooxygenase is more than 1000 µM.

`Nc1c(CCO)cccc1C(O)c1ccccc1` (stereo unspecified): in the series listed under Rattus norvegicus [1], the Potency amounted to 0.005. In addition, on Cyclooxygenase, the IC50 was more than 500 µM.

Consider `Nc1c(CCO)cccc1C(=O)c1ccc(Cl)cc1`, for which the Therapeutic index in the series listed under Rattus norvegicus [2] is 3.3. The Potency in the series filed under Rattus norvegicus [1] is on record as 0.8. At Cyclooxygenase, the IC50 is more than 1000 µM.
